# Experiments:
# human RBCs = assay: Haemolytic activity (HC50); assay type: cell-based; details: concentration at which 50% of the blood cells are lysed; human RBCs
# Procedure: Erythrocytes are isolated from freshly drawn, heparinized human blood and re-suspended to 5 vol % in PBS (pH 7.4). In a 96-well microtiter plate, 150 μl of erythrocyte suspension is added to 50 μl of serially diluted compound. Two controls are made, one without compound and other with 50 μl of 1 vol % solution of Triton X-100. The plate is incubated for about 1 hr at a temperature of about 37° C. The plate is then centrifuged at 3,500 rpm for about 5 min, 100 μl of the supernatant from each well is transferred to a fresh microtiter plate, and absorbance at 540 nm is measured. Percentage of hemolysis is determined as (A−A0)/(Atotal−A0)×100, where A is the absorbance of the test well, A0 the absorbance of the negative controls (without compound), and A total the absorbance of 100% hemolysis wells (with Triton X-100), when absorbance is read at 540 nm.
# Toxicity studies of the compounds are carried out on freshly drawn human RBCs. Toxicity of the antimicrobial compounds of the present disclosure is defined by their HC50 values illustrated in Table 3, i.e. the concentration of compound at which 50% of the blood cells are lysed. Haemolytic studies conducted herein illustrates that the antimicrobial compounds provided by the instant disclosure are selective towards drug sensitive bacteria and drug resistant bacteria over human RBCs, thus establishing the non-toxicity of the present compounds.
# E. coli (MTCC 443) = assay: Minimum Inhibitory Concentration, micro-dilution broth; assay type: cell-based, Escherichia coli; details: for Minimum Inhibitory Concentration E. coli: Drug sensitive bacteria
# Procedure: (§1) Microorganisms and Culture Conditions: Bacterial strains, S. aureus (MTCC 737) and E. coli (MTCC 443) are purchased from MTCC (Chandigarh, India). MRSA (ATCC 33591), Pseudomonas aeruginosa (ATCC 4676), […]-lactamase producing and drug-resistant Klebsiella pneumonia (ATCC700603), Enterococcus faecium (ATCC 19634) and vancomycin resistant Enterococcus faecium (ATCC 51559) are obtained from ATCC (Rockville, Md., USA).
# (§2) E. coli is cultured in Luria Bertani broth (10 g of tryptone, 5 g of yeast extract, and 10 g of NaCl in 1000 mL of sterile distilled water (pH −7) while S. aureus, Pseudomonas aeruginosa (ATCC 4676) and MRSA are grown in Yeast-dextrose broth (1 g of beef extract, 2 g of yeast extract, 5 g of peptone and 5 g of NaCl in 1000 mL of sterile distilled water). For all Enterococcus faecium, Brain Heart Infusion broth (BHI) is used. For solid media 5% agar was used along with above mentioned composition. K. pneumonia was grown in nutrient media (3 g of beef extract and 5 g of peptone in 1000 mL of sterile distilled water). The bacterial samples were freeze dried and stored at −80° C. 5 μl of these stocks were added to 3 mL of the nutrient broth and the culture was grown for 6 h at 37° C. prior to the experiments.
# (§3) Antibacterial activity is reported as Minimum Inhibitory Concentration (MIC), i.e. the lowest concentration of the antimicrobial agent that will inhibit the growth of a microorganism after overnight incubation. Water-soluble ACK, NCK and BCK series of compounds are assayed in a modified micro-dilution broth format. Stock solutions are made by serially diluting the compounds using autoclaved Millipore water. Bacteria, to be tested are grown for about 6 hrs in the suitable media containing ˜10^9 cfu/mL (determined through dilution plate technique by spread plate method), which is then diluted to 10^5 cfu/mL using nutrient media. 50 μL of serially diluted compound is added to a 96 well plate containing 150 μL bacterial solutions. Two controls are made; one containing 150 μL of media and 50 μL of compound and the other containing 200 μL of bacterial solution. […] MIC value is determined by taking the average of triplicate O.D. values for each concentration and plotting it against concentration using Origin Pro 8.0 software. The data is then subjected to sigmoidal fitting. From the curve, MIC value is determined, as the point in the curve where the O.D. is similar to that of control having no bacteria. The MIC values and errors of independent experiments are reported as average and standard deviation of triplicates.
# MRSA (ATCC 33591) = assay: as above; assay type: cell-based, Methicillin resistant S. aureus; details: for Minimum Inhibitory Concentration MRSA: Drug resistant bacteria
# Procedure: as §1, §2, §3
# [1] = tested on: Pseudomonas aeruginosa (ATCC 4676); assay: as above; assay type: cell-based; details: for Minimum Inhibitory Concentration P. aeruginosa: Drug sensitive bacteria
# Procedure: as §1, §2, §3
# [2] = tested on: drug-resistant Klebsiella pneumonia (ATCC700603); assay: as above; assay type: cell-based; details: for Minimum Inhibitory Concentration K. pneumonia: Drug resistant bacteria
# Procedure: as §1, §2, §3
# [3] = tested on: vancomycin resistant Enterococcus faecium (ATCC 51559); assay: as above; assay type: cell-based; details: for Minimum Inhibitory Concentration VRE: Drug resistant bacteria
# Procedure: as §1, §2, §3
# [4] = tested on: Enterococcus faecium (ATCC 19634); assay: as above; assay type: cell-based; details: for Minimum Inhibitory Concentration E. faecium: Drug sensitive bacteria
# Procedure: as §1, §2, §3
# S. aureus (MTCC 737) = assay: as above; assay type: cell-based, Staphylococcus aureus; details: for Minimum Inhibitory Concentration S. aureus: Drug sensitive bacteria
# Procedure: as §1, §2, §3
Structure (SMILES),HC50 (human RBCs) [µg/mL],MIC value against E. coli (E. coli (MTCC 443)),Minimum Inhibitory Concentration E. coli (E. coli (MTCC 443)) [µg/mL],MIC value against methicillin-resistant S. aureus (MRSA (ATCC 33591)),Minimum Inhibitory Concentration MRSA (MRSA (ATCC 33591)) [µg/mL],MIC value against P. aeruginosa [1],Minimum Inhibitory Concentration P. aeruginosa [1] [µg/mL],MIC value against K. pneumonia [2],Minimum Inhibitory Concentration K. pneumonia [2] [µg/mL],MIC value against vancomycin-resistant E. faecium [3],Minimum Inhibitory Concentration VRE [3] [µg/mL],MIC value against E. faecium [4],Minimum Inhibitory Concentration E. faecium [4] [µg/mL],MIC value against S. aureus (S. aureus (MTCC 737)),Minimum Inhibitory Concentration S. aureus (S. aureus (MTCC 737)) [µg/mL]
"CCCCCCCCCCN(Cc1ccccc1)C(=O)[C@@H](N)CCCCN.O=C(O)C(F)(F)F [BCK-10, Lys-N-decyl-1-Aminomethylbenzene trifluoroacetates]",95,about 6.5 μg/ml,6.5,about 15.7 μg/ml,15.7,about 4 μg/ml,4,about 31 μg/ml,31,about 5.8 μg/ml,5.8,about 6.5 μg/ml,6.5,about 5.7 μg/ml,5.7
"CCCCCCCCCCCCN(Cc1ccccc1)C(=O)C(N)CCCCN.O=C(O)C(F)(F)F (centres unmarked) [BCK-12, Lys-N-dodecyl-1-Aminomethylbenzene trifluoroacetates]",45,~5 µg/mL,5,~2.9 µg/mL,2.9,about 4 μg/ml,4,~2.8 µg/mL,2.8,~3.3 µg/mL,3.3,~2.6 µg/mL,2.6,~2.7 µg/mL,2.7
"CCCCCCCCCCCCCCN(Cc1ccccc1)C(=O)C(N)CCCCN.O=C(O)C(F)(F)F (centres unmarked) [BCK-14, Lys-N-tetradecyl-1-Aminomethylbenzene trifluoroacetates]",50,~3.1 µg/mL,3.1,~2.5 µg/mL,2.5,~2.8 µg/mL,2.8,~4 µg/mL,4,~2.5 µg/mL,2.5,~2 µg/mL,2,~3.1 µg/mL,3.1
"CCCCN(Cc1cccc2ccccc12)C(=O)C(N)CCCCN.O=C(O)C(F)(F)F (centres unmarked) [NCK-4, Lys-N-butyl-1-Aminomethylnaphthalene trifluoroacetate]",>1000,,>100,,>100,,>100,,>100,,>100,,>100,,>100
"CCCCCCN(Cc1cccc2ccccc12)C(=O)[C@@H](N)CCCCN.O=C(O)C(F)(F)F [NCK-6, Lys-N-hexyl-1-Aminomethylnaphthalene trifluoroacetate]",508,,25,,65,about 11 μg/ml,11,,100,,54,,34,,20
"CCCCCCCCN(Cc1cccc2ccccc12)C(=O)C(N)CCCCN.O=C(O)C(F)(F)F (centres unmarked) [NCK-8, Lys-N-octyl-1-Aminomethylnaphthalene trifluoroacetate]",60,about 5 μg/ml,5,about 4.4 μg/ml,4.4,~5.4 µg/mL,5.4,about 13 μg/ml,13,about 7 μg/ml,7,about 5.5 μg/ml,5.5,about 6.3 μg/ml,6.3
"CCCCCCCCCCN(Cc1cccc2ccccc12)C(=O)[C@@H](N)CCCCN.O=C(O)C(F)(F)F [NCK-10, Lys-N-decyl-1-Aminomethylnaphthalene trifluoroacetate]",54,~4 µg/mL,4,~2.6 µg/mL,2.6,~3 µg/mL,3,~5.8 µg/mL,5.8,~1.6 µg/mL,1.6,~3.5 µg/mL,3.5,~2.5 µg/mL,2.5
"CCCCCCCCCCCCN(Cc1cccc2ccccc12)C(=O)[C@@H](N)CCCCN.O=C(O)C(F)(F)F [NCK-12, Lys-N-dodecyl-1-Aminomethylnaphthalene trifluoroacetate]",56,~3.1 µg/mL,3.1,~2.7 µg/mL,2.7,~3.2 µg/mL,3.2,~4 µg/mL,4,~3.4 µg/mL,3.4,~1.6 µg/mL,1.6,~3 µg/mL,3

# Reference: patent US9783490B2, “Antimicrobial compounds, their synthesis and applications thereof” (The Secretary of State for Health, priority 2012, dated 2017)
